Results from ChEMBL document CHEMBL2331413, “Novel in vivo active anti-malarials based on a hydroxy-ethyl-amine scaffold” (Bioorg Med Chem Lett, 2013).

Experiments:
Format in all cases: functional, organism-based
[1] = test system: Plasmodium falciparum; assay: Antimalarial activity against chloroquine-sensitive Plasmodium falciparum NF54 infected in RBC after 72 hrs by [3H]hypoxanthine incorporation assay in presence of 50 % serum
[2] = test system: Plasmodium falciparum; assay: Antimalarial activity against chloroquine-sensitive Plasmodium falciparum NF54 infected in RBC after 72 hrs by [3H]hypoxanthine incorporation assay in presence of 0.5 % albumax
[3] = test system: Plasmodium falciparum; assay: Antimalarial activity against chloroquine-sensitive Plasmodium falciparum NF54 infected in RBC after 48 hrs by [3H]hypoxanthine incorporation assay in presence of 0.5 % albumax
[4] = test system: Plasmodium falciparum; assay: Antimalarial activity against chloroquine-sensitive Plasmodium falciparum NF54 infected in RBC after 24 hrs by [3H]hypoxanthine incorporation assay in presence of 0.5 % albumax

SMILES | IC50 [1] | IC50 [2] | IC50 [3] | IC50 [4]
CCCN(CCC)C(=O)c1cccc(C(=O)N[C@@H](Cc2ccccc2)[C@H](O)CN[C@@H](C)C2CCCCC2)c1 | 466 nM | 324 nM | – | –
CCCN(CCC)C(=O)c1cccc(C(=O)N[C@@H](Cc2ccccc2)[C@H](O)CN2CCN(Cc3ccccc3)CC2)c1 | – | > 500 nM | – | –
CC(C)(NC[C@@H](O)[C@H](Cc1ccccc1)NC(=O)C1CCCC1)c1ccccc1 | – | > 500 nM | – | –
CCCN(CCC)C(=O)c1ccccc1C(=O)N[C@@H](Cc1ccccc1)[C@H](O)CN[C@H](C)c1ccccc1 | > 500 nM | > 500 nM | – | –
CC(C)(NC[C@@H](O)[C@H](Cc1ccccc1)NC(=O)Cc1cccc2ccccc12)c1ccccc1 | – | > 500 nM | – | –
CN1CCN(c2ccc(C(=O)N[C@@H](Cc3ccccc3)[C@H](O)CNCc3ccc(O)c(CN4CCCC4)c3)cc2)CC1 | 295 nM | > 500 nM | > 500 nM | > 500 nM
CC1CN(c2ccc(C(=O)N[C@@H](Cc3ccccc3)[C@H](O)CN[C@H](C)c3ccccc3)cc2)CCN1 (stereo not given in full) | 300 nM | 190 nM | – | –
CC(C)(NC[C@@H](O)[C@H](Cc1ccccc1)NC(=O)c1ccncc1)c1ccccc1 | – | > 500 nM | – | –
CC(C)(NC[C@@H](O)[C@H](Cc1ccccc1)NC(=O)c1cccc(C(F)(F)F)c1)c1ccccc1 | – | 300 nM | – | –
CCCN(CCC)C(=O)c1cccc(C(=O)N[C@@H](Cc2ccccc2)[C@H](O)CNCc2ccccc2)c1 | – | > 500 nM | – | –
Cc1cc(C(=O)N[C@@H](Cc2ccccc2)[C@H](O)CNC(C)(C)c2ccccc2)nn1C | – | > 500 nM | – | –
C[C@@H](NC[C@@H](O)[C@H](Cc1ccccc1)NC(=O)c1ccc(O)c(CN2CCCC2)c1)c1ccccc1 | 386 nM | 261 nM | – | –
CN1CCN(c2ccc(C(=O)N[C@@H](Cc3ccccc3)C(F)(F)CNC3CCCC3)cc2)CC1 | > 500 nM | > 500 nM | – | –
CC(=O)N[C@@H](Cc1ccccc1)[C@H](O)CNC(C)(C)c1ccccc1 | – | > 500 nM | – | –
CC(C)(NC[C@@H](O)[C@H](Cc1ccccc1)NC(=O)Cc1ccccc1)c1ccccc1 | – | > 500 nM | – | –
COCCCC(=O)N[C@@H](Cc1ccccc1)[C@H](O)CNC(C)(C)c1ccccc1 | – | > 500 nM | – | –

SMILES | IC50 [1] | IC50 [2] | IC50 [3] | IC50 [4]
CC(C)(C)c1ccc(/C=C/C(=O)N[C@@H](Cc2ccccc2)[C@H](O)CNC(C)(C)c2ccccc2)cc1 | – | 444 nM | – | –
CCCN(CCC)C(=O)c1cccc(C(=O)N[C@@H](Cc2ccccc2)[C@@H](O)CNCCCc2ccccc2)c1 | > 500 nM | > 500 nM | – | –
CCCN(CCC)C(=O)c1cccc(C(=O)N[C@H](CCNC(C)C)Cc2ccccc2)c1 | > 500 nM | > 500 nM | – | –
CC(C)(NC[C@@H](O)[C@H](Cc1ccccc1)NC(=O)c1cccc2ncccc12)c1ccccc1 | – | > 500 nM | – | –
CCCN(CCC)C(=O)c1cccc(C(=O)N[C@@H](Cc2ccccc2)[C@H](O)CNC2CCN(C)CC2)c1 | > 500 nM | > 500 nM | – | –
CC(NC[C@@H](O)[C@H](Cc1ccccc1)NC(=O)c1ccc(N2CCN(C)CC2)cc1)c1ccc(O)c(CN2CCCCC2)c1 (stereo not given in full) | 125 nM | 203 nM | – | –
CN1CCCc2cc(C(=O)N[C@@H](Cc3ccccc3)[C@H](O)CNC(C)(C)c3ccccc3)ccc21 | – | > 500 nM | – | –
CCN(CC)Cc1cc(CNC[C@@H](O)[C@H](Cc2ccccc2)NC(=O)c2ccc(N3CCN(C)CC3)cc2)ccc1O | 167 nM | 333 nM | 314 nM | 408 nM
Cn1cc(C(=O)N[C@@H](Cc2ccccc2)[C@H](O)CNC(C)(C)c2ccccc2)c2ccccc21 | – | > 500 nM | – | –
CC(C)C[C@H](NC(=O)c1ccc(N2CCN(C)CC2)cc1)[C@H](O)CNC1CCCC1 | > 500 nM | > 500 nM | – | –
CC(C)(NC[C@@H](O)[C@H](Cc1ccccc1)NC(=O)c1ccc(Cl)cc1)c1ccccc1 | – | 349 nM | – | –
Cn1cnc(C(=O)N[C@@H](Cc2ccccc2)[C@H](O)CNC(C)(C)c2ccccc2)c1 | – | > 500 nM | – | –
COc1cccc(C(=O)N[C@@H](Cc2ccccc2)[C@H](O)CNC(C)(C)c2ccccc2)c1 | – | 349 nM | – | –
CCCN(CCC)C(=O)c1cccc(C(=O)N[C@@H](Cc2ccccc2)[C@H](O)CN2CCN(C(C)=O)CC2)c1 | – | > 500 nM | – | –
CCN(CC)Cc1cc(C(=O)N[C@@H](Cc2ccccc2)[C@H](O)CN[C@H](C)c2ccccc2)ccc1O | > 500 nM | 357 nM | 305 nM | 380 nM

Results, then the compound that gave them:

IC50 [1] | IC50 [2] | IC50 [3] | IC50 [4] | SMILES
62 nM | 89 nM | 75 nM | 90 nM | CCCN(CCC)Cc1cc(C(C)NC[C@@H](O)[C@H](Cc2ccccc2)NC(=O)c2ccc(N3CCN(C)CC3)cc2)ccc1O (stereo not given in full)
3.6 nM | 8.3 nM | < 7.8 nM | 133 nM | CCN(CC)Cc1cc(Nc2ccc(C(=O)N[C@@H](Cc3ccccc3)[C@H](O)CN[C@H](C)c3ccccc3)cc2)ccc1O
150 nM | 78 nM | – | – | CCCN(CCC)C(=O)c1cccc(C(=O)N[C@@H](Cc2ccccc2)[C@H](O)CNC(C)C)c1
– | 146 nM | – | – | CC(C)(NC[C@@H](O)[C@H](Cc1ccccc1)NC(=O)c1ccc2cc[nH]c2c1)c1ccccc1
168 nM | 12 nM | – | – | CCCN(CCC)C(=O)c1cccc(C(=O)N[C@@H](Cc2ccccc2)[C@H](O)CNC2(c3ccccc3)CCCC2)c1
188 nM | 55 nM | – | – | CCCN(CCC)C(=O)c1cccc(C(=O)N[C@@H](Cc2ccccc2)[C@H](O)CNC(C)(C)c2ccc(C#N)cc2)c1
– | 11 nM | – | – | CCCN(CCC)C(=O)c1cccc(C(=O)N[C@@H](Cc2ccccc2)[C@H](O)CNC2Cc3ccccc3C2)c1
66 nM | 24 nM | – | – | CCCN(CCC)C(=O)c1cccc(C(=O)N[C@@H](Cc2ccccc2)[C@H](O)CNC(C)(C)C)c1
– | 37 nM | – | – | CC(C)(NC[C@@H](O)[C@H](Cc1ccccc1)NC(=O)c1cccc(-c2ccccc2)c1)c1ccccc1
– | 44 nM | – | – | CC(=O)Nc1cccc(C(=O)N[C@@H](Cc2ccccc2)[C@H](O)CNC(C)(C)c2ccccc2)c1
25 nM | < 7.8 nM | – | – | CCCN(CCC)C(=O)c1cccc(C(=O)N[C@@H](Cc2ccccc2)[C@H](O)CNC(C)(C)c2cccc(OC)c2)c1
50 nM | 9.6 nM | – | – | CCCN(CCC)C(=O)c1cccc(C(=O)N[C@@H](Cc2ccccc2)[C@H](O)CNC(C)(C)c2cccc(F)c2)c1
20 nM | 22 nM | – | 77 nM | CCCN(CCC)Cc1ccc(Nc2ccc(C(=O)N[C@@H](Cc3ccccc3)[C@H](O)CN[C@H](C)c3ccccc3)cc2)cc1O
39 nM | 21 nM | – | – | C[C@@H](NC[C@@H](O)[C@H](Cc1ccccc1)NC(=O)c1ccc(N2CCN(Cc3ccccc3)CC2)cc1)c1ccccc1
102 nM | 98 nM | – | – | C[C@@H](NC[C@@H](O)[C@H](Cc1ccccc1)NC(=O)c1cccc(C(=O)N2CCN(C)CC2)c1)c1ccccc1
28 nM | 14 nM | – | – | CCCN(CCC)C(=O)c1cccc(C(=O)N[C@@H](Cc2ccccc2)[C@H](O)CNC2CCCCC2)c1
13 nM | 3.8 nM | – | – | C[C@@H](NC[C@@H](O)[C@H](Cc1ccccc1)NC(=O)c1cccc(C(=O)N2CCCCCC2)c1)c1ccccc1
48 nM | 11 nM | – | – | CCCN(CCC)C(=O)c1cccc(C(=O)N[C@@H](Cc2ccccc2)[C@H](O)CN[C@H](C)C2CCCCC2)c1

IC50 [1] | IC50 [2] | IC50 [3] | IC50 [4] | SMILES
8.6 nM | < 1.5 nM | – | – | CCCN(CCC)C(=O)c1cccc(C(=O)N[C@@H](Cc2ccccc2)[C@H](O)CNC(C)(C)c2cccc(C#N)c2)c1
435 nM | 116 nM | – | – | CCCN(CCC)C(=O)c1cccc(C(=O)N[C@@H](Cc2ccccc2)[C@H](O)CNC2(c3ccccc3)CC2)c1
143 nM | 45 nM | – | – | CCCN(CCC)C(=O)c1cccc(C(=O)N[C@@H](Cc2ccccc2)[C@H](O)CNC(C)(C)c2ccc3ccccc3c2)c1
75 nM | 81 nM | – | – | CN1CCN(c2ccc(C(=O)N[C@@H](Cc3ccccc3)[C@H](O)CNC3CCCC3)cc2)CC1
40 nM | 7.6 nM | – | – | CCCN(CCC)C(=O)c1cccc(C(=O)N[C@@H](Cc2ccccc2)[C@H](O)CNC(C)(C)c2ccccc2)c1
9.3 nM | 4.9 nM | – | – | C[C@@H](NC[C@@H](O)[C@H](Cc1ccccc1)NC(=O)c1cccc(C(=O)N2CCCC2)c1)c1ccccc1
34 nM | 16 nM | – | – | CCCN(CCC)C(=O)c1cccc(C(=O)N[C@@H](Cc2ccccc2)[C@H](O)CNC2CCOCC2)c1
30 nM | 12 nM | – | – | CCCNC(=O)c1cccc(C(=O)N[C@@H](Cc2ccccc2)[C@H](O)CN[C@H](C)c2ccccc2)c1
110 nM | 24 nM | – | – | CCCN(CCC)C(=O)c1cccc(C(=O)N[C@@H](Cc2ccccc2)[C@H](O)CNC(C)(C)c2ccc(F)cc2)c1
142 nM | 21 nM | – | – | CCCN(CCC)C(=O)c1cccc(C(=O)N[C@@H](Cc2ccccc2)[C@H](O)CNC(C)(C)c2ccccc2F)c1
– | 21 nM | – | – | CCCN(CCC)C(=O)c1cccc(C(=O)N[C@@H](Cc2ccccc2)[C@H](O)CN[C@@H](C)c2ccccc2)c1
9 nM | < 7.8 nM | 15 nM | 65 nM | CCN(CC)Cc1ccc(Nc2ccc(C(=O)N[C@@H](Cc3ccccc3)[C@H](O)CN[C@H](C)c3ccccc3)cc2)cc1O
– | 162 nM | – | – | CC(=O)N1CCN(c2ccc(C(=O)N[C@@H](Cc3ccccc3)[C@H](O)CNC(C)(C)c3ccccc3)cc2)CC1
44 nM | 13 nM | – | – | CCCN(CCC)C(=O)c1cccc(C(=O)N[C@@H](Cc2ccccc2)[C@H](O)CNC(C)(C)c2ccc(OC)cc2)c1
– | 186 nM | – | – | CCCN(CCC)C(=O)c1cccc(C(=O)N[C@@H](Cc2ccccc2)[C@H](O)CNCCc2ccccc2)c1
126 nM | 43 nM | – | – | CCCN(CCC)C(=O)c1cccc(C(=O)N[C@@H](Cc2ccccc2)[C@H](O)CNCCCc2ccccc2)c1
– | 102 nM | – | – | CN(C)c1cccc(C(=O)N[C@@H](Cc2ccccc2)[C@H](O)CNC(C)(C)c2ccccc2)c1
– | 48 nM | – | – | CCCN(CCC)C(=O)c1cccc(C(=O)N[C@@H](Cc2ccccc2)[C@H](O)CNC2CCc3ccccc32)c1 (stereo not given in full)
